Assay results: patent US8258140B2 (Astrazeneca AB, priority 2009, dated 2012)

Target: T1, Androgen Receptor (AR) in the LNCaP prostate carcinoma cell line (Homo sapiens, UniProt P10275, T878A)
T1 construct: cell based immuno-fluorescence assay using the LNCaP prostate epithelial cell line; host or cells: LNCaP clone FGC
T1 sequence (P10275 1-920 T878A): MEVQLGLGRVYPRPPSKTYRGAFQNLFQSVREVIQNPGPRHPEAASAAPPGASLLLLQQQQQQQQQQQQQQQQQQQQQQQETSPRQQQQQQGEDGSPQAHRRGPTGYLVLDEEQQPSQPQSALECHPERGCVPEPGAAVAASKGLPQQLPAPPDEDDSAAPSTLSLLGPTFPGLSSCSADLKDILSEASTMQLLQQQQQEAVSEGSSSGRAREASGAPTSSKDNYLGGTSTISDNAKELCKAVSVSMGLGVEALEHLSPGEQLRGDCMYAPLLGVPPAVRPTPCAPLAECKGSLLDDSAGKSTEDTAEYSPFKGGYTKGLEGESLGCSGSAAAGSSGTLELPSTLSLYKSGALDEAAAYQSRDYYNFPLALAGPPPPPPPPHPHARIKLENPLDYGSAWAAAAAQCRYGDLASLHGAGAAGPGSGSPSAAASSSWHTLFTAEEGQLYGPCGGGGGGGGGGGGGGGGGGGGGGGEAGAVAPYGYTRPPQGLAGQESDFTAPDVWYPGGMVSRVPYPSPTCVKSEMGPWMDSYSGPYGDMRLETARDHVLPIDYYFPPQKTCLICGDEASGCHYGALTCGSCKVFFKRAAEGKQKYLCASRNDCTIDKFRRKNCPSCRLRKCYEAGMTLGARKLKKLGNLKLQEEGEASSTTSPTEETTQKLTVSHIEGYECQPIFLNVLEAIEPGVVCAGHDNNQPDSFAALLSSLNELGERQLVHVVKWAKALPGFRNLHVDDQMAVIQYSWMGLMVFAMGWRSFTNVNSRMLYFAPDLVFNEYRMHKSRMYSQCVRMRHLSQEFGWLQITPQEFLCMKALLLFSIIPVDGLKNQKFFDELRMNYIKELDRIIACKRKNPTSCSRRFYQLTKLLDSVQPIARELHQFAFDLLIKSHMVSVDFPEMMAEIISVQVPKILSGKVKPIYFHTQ
Assay: LNCaP Androgen Receptor Down-Regulation Cell Assay (immunofluorescence end point)
Assay type: cell-based
Details: LNCaP cells, compound incubation 20-22 hours, concentration giving 50% reduction of the AR signal
Summary of the method: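 LNCaP cells (6.5×10^3/well) in phenol-red-free RPMI with 5% charcoal-stripped FBS were treated with compound dilutions for 20–22 h at 37 °C. They were then formaldehyde-fixed, permeabilised, blocked and immunostained for AR with monoclonal antibody AR441.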

Row | SMILES | IC50 [µM]
1 | CC(=O)N1CCN(CCCOc2ccc(C3CCN(C4=Nn5c(nnc5C(F)(F)F)CC4)CC3)cc2)CC1 [Example 4.1, 6-[4-[4-[3-(4-acetylpiperazin-1-yl)propoxy]phenyl]piperidin-1-yl]-3-(trifluoromethyl)-7,8-dihydro[1,2,4]triazolo[4,3-b]pyridazine] | 1.2
2 | CC(=O)N1CCN(CCOc2ccc(C3CCN(C4=Nn5c(nnc5C(F)(F)F)CC4)CC3)cc2)CC1 [Example 5.1, 6-(4-{4-[2-(4-acetylpiperazin-1-yl)ethoxy]phenyl}piperidin-1-yl)-3-(trifluoromethyl)-7,8-dihydro[1,2,4]triazolo[4,3-b]pyridazine] | 1.8
3 | CN1CCN(CCOc2ccc(C3CCN(C4=Nn5c(nnc5C(F)(F)F)CC4)CC3)cc2)CC1=O [Example 37, 1-methyl-4-[2-(4-{1-[3-(trifluoromethyl)-7,8-dihydro[1,2,4]triazolo[4,3-b]pyridazin-6-yl]piperidin-4-yl}phenoxy)ethyl]piperazin-2-one] | 1.7
4 | CC(=O)N1CCN(CCOc2ccc(C3CCN(C4=Nn5c(nnc5C(F)(F)F)CC4)CC3)cc2)C[C@H]1C [Example 51, 6-[4-(4-{2-[(3R)-4-acetyl-3-methylpiperazin-1-yl]ethoxy}phenyl)piperidin-1-yl]-3-(trifluoromethyl)-7,8-dihydro[1,2,4]triazolo[4,3-b]pyridazine] | 0.25
